According to US10729130B2, “Nematicidal compositions and methods of using them” (Eden Research plc, priority 2004, dated 2020):

Tests used:
Type in all cases: physicochemical
[1] = Maximal terpene loading at high Baker's yeast particle levels (free terpene score); set-up: key to Free Terpene: +: “free terpene” refers to the visible presence of terpene in the centrifuged reaction mixture; −: The absence of free terpene indicates complete absorption of the terpene by the particles; conditions: for terpene emulsion absorbed and encapsulated per 125 mg of YP: Baker's YP 250 mg/ml; for Free Terpene: 500 μl 250 mg/ml YP
Protocol: Samples were centrifuged at 14,000×g for 10 minutes and the appearance of free terpene floating on the aqueous layer was scored. The expression “free terpene” refers to the visible presence of terpene in the centrifuged reaction mixture. The absence of free terpene indicates complete absorption of the terpene by the YP. The highest volume of terpene absorbed by the YP, as evidenced by the absence of free terpene, was recorded as the maximal volume of absorbed terpene emulsion.

[2] = Terpene loading with surfactant, Tween-80:terpene ratio (free terpene score); set-up: key: Sl = slight; conditions: 250 mg/ml YP
Protocol: Samples were centrifuged at 14,000×g for 10 minutes and the appearance of free terpene floating on the aqueous layer was scored. The expression “free terpene” refers to the visible presence of terpene in the centrifuged reaction mixture. The absence of free terpene indicates complete absorption and encapsulation of the terpene by the YP. The highest volume of terpene absorbed by the YP, as evidenced by the absence of free terpene, was recorded as the maximal volume of absorbed terpene emulsion.

[3] = SAF Mannan loading of different terpenes and terpene mixtures; set-up: key to Free Terpene: +: “free terpene” refers to the visible presence of terpene in the centrifuged reaction mixture; −: The absence of free terpene indicates complete absorption of the terpene by the particles; key to Free Terpene: phase inversion remark: Inverted = Phase Inverted - solids floating on top - no free oil; W = white; Y = yellow; conditions: for Free Terpene: SAF Mannan 500 μl (250 mg/ml), overnight, room temperature; for Free Terpene: phase inversion remark: SAF Mannan 500 μl, second line of the Free Terpene cell; for Vol. loaded (maximal terpene loading in SAF Mannan): approximate maximal loading, volume of terpene emulsion absorbed by SAF Mannan; for % Loaded w/w (maximal terpene loading in SAF Mannan): ratio of amount of terpene loaded to amount of particle present (weight for weight)
Protocol: (§1) Increasing volumes of terpene emulsion were mixed with 250 mg/ml Baker's YP or 250 mg/ml SAF Mannan™ overnight at room temperature as shown in Tables 27 and 28. Samples were centrifuged at 14,000×g for 10 minutes and the appearance of free terpene floating on the aqueous layer was scored. The highest volume of terpene emulsion absorbed by Baker's YP or SAF Mannan™ as evidenced by the absence of free terpene was recorded as the volume of absorbed terpene emulsion. Colour of encapsulated terpenes in the pellet was recorded.
(§2) Percentage loaded represents a ratio of the amount of terpene loaded to the amount of particle present (weight for weight).

[4] = Screen of commercially available particles for terpene absorption (free terpene score); set-up: key: +: “free terpene” refers to the visible presence of terpene in the centrifuged reaction mixture; −: The absence of free terpene indicates complete absorption of the terpene by the particles; conditions: overnight
Protocol: The following protocol was performed to analyse the loading properties of different types of particles. The particles studied were Baker's Yeast Particles (Sigma Chemical Corp., St. Louis, Mo.), Nutrex™ Walls (Sensient Technologies, Milwaukee, Wis.), SAF-Mannan™ (SAF Agri, Minneapolis, Minn.), Nutricept Walls™ (Nutricepts Inc., Burnsville, Minn.), Levacan™ (Savory Systems International, Inc., Branchburg, N.J.) and WGP™ (Alpha-beta Technology, Inc. Worcester, Mass.).
The YP suspensions were prepared as follows: • Baker's yeast particle suspension (YP) was prepared by mixing 250 mg YP/ml 1% Tween 80. • Nutrex suspension was prepared by mixing 163 mg Nutrex YGP/ml 1% Tween 80. • SAF Mannan suspension was prepared by mixing 234 mg Biospringer YGP/ml 1% Tween 80. • Nutricepts suspension was prepared by mixing 99 mg Nutricepts YGP/ml 1% Tween 80. • Levacan suspension was prepared by mixing 217 mg Lev YGP/ml 1% Tween 80. • WGP suspension was prepared by mixing 121 mg WGP YGP/ml 1% Tween 80.
The packed volume of the above particles is identical which means that equal numbers of particles were assayed.
Loading reactions were set up as shown in Table 25 and left to incubate overnight. Samples were centrifuged at 14,000×g for 10 minutes and the appearance of free terpene floating on the aqueous layer and the color of the encapsulated terpenes in the pellet was scored. The highest volume of terpene absorbed by particles as evidenced by the absence of free terpene was recorded as the volume of absorbed terpene emulsion.

[5] = Baker's YP loading of different terpenes and terpene mixtures; set-up: key to Free Terpene: +: “free terpene” refers to the visible presence of terpene in the centrifuged reaction mixture; −: The absence of free terpene indicates complete absorption of the terpene by the particles; conditions: for Free Terpene: Baker's YP 250 mg/ml 500 μl; for Vol. Loaded μl: approximate maximal terpene loading in Baker's YP
Protocol: as §1, §2

[6] = emulsion 15 μl, 1% Tween-80 485 μl
[7] = emulsion 37.5 μl, 1% Tween-80 462.5 μl
[8] = emulsion 75 μl, 1% Tween-80 425 μl
[9] = emulsion 112.5 μl, 1% Tween-80 387.5 μl
[10] = emulsion 150 μl, 1% Tween-80 350 μl
[11] = emulsion 225 μl, 1% Tween-80 275 μl
[12] = emulsion 450 μl, 1% Tween-80 50 μl
[13] = terpene emulsion vol 15, 1% Tween-80 485 μl
[14] = terpene emulsion vol 37.5, 1% Tween-80 462.5 μl
[15] = terpene emulsion vol 75, 1% Tween-80 425 μl
[16] = terpene emulsion vol 112.5, 1% Tween-80 387.5 μl
[17] = terpene emulsion vol 450, 1% Tween-80 50 μl
[18] = Baker's 250 mg/ml, emulsion 125 μl L-carvone or 100 μl Citral
[19] = Levacan 217 mg/ml, emulsion 125 μl L-carvone or 100 μl Citral
[20] = Nutrex 163 mg/ml, emulsion 125 μl L-carvone or 100 μl Citral
[21] = Nutricepts 99 mg/ml, emulsion 125 μl L-carvone or 100 μl Citral
[22] = SAF Mannan 234 mg/ml, emulsion 125 μl L-carvone or 100 μl Citral
[23] = WGP 121 mg/ml, emulsion 125 μl L-carvone or 100 μl Citral
[24] = no particle, emulsion 125 μl L-carvone or 100 μl Citral in 1% Tween 80

Compound | terpene emulsion absorbed and encapsulated per 125 mg of YP [1] | Free Terpene [1, 6] | Free Terpene [1, 7] | Free Terpene [1, 8] | Free Terpene [1, 9] | Free Terpene [1, 10] | Free Terpene [1, 11] | Free Terpene [1, 12] | Free Terpene [3, 13] | Free Terpene [3, 14] | Free Terpene [3, 15] | Free Terpene [3, 16] | Free Terpene [3, 17] | Vol. loaded (maximal terpene loading in SAF Mannan) [3] [µL] | % Loaded w/w (maximal terpene loading in SAF Mannan) [3] [% w/w] | Free Terpene [4, 18] | Free Terpene [4, 19] | Free Terpene [4, 20] | Free Terpene [4, 21] | Free Terpene [4, 22] | other results
CC(C)=CCCC(C)=CC=O [Citral, citral] | at least 75 μl | − | − | − | Sl+ | + | + | + | − | − | − | − | + | 150 | 133 | − | + | − | + | − | Free Terpene ([2]; Citral emulsion 113 μl, 10% Tween-80 33 μl): Sl; Free Terpene ([2]; Citral emulsion 113 μl, 10% Tween-80 100 μl): Sl; Free Terpene ([3]; terpene emulsion vol 225, 1% Tween-80 275 μl): +; Free Terpene: phase inversion remark ([3]; terpene emulsion vol 150): Inverted; Free Terpene: phase inversion remark ([3]; terpene emulsion vol 225): Inverted; Free Terpene: phase inversion remark ([3]; terpene emulsion vol 450): Inverted; Free Terpene [4, 23]: +; Free Terpene [4, 24]: +; Free Terpene [5, 6]: −; Free Terpene [5, 7]: −; Free Terpene [5, 8]: −; Free Terpene [5, 10]: +; Free Terpene [5, 11]: +; Free Terpene [5, 12]: +; Vol. Loaded μl [5]: 75 µL
L-carvone | at least 112.5 μl | − | − | − | − | Sl+ | + | + | − | − | − | − | + | 112.5 | 100 | − | + | − | + | − | Free Terpene ([2]; L-carvone emulsion 150 μl, 10% Tween-80 0 μl): Sl; Free Terpene ([2]; L-carvone emulsion 150 μl, 10% Tween-80 5 μl): Sl; Free Terpene ([2]; L-carvone emulsion 150 μl, 10% Tween-80 10 μl): Sl; Free Terpene ([2]; L-carvone emulsion 150 μl, 10% Tween-80 33 μl): Sl; Free Terpene [4, 23]: +; Free Terpene [4, 24]: +; Free Terpene [5, 6]: −; Free Terpene [5, 7]: −; Free Terpene [5, 10]: +; Free Terpene [5, 11]: +; Vol. Loaded μl [5]: 37.5 µL; % Loaded w/w ([5]; maximal loading in Baker's YP, ratio of terpene loaded to particle present, weight for weight): 33.3 % w/w
